The conditions of data set [1]: cited from earlier work.
In data set [2] the test system is infiltrating immune cells at the injection site. The following applies: subcutaneous, 24 h. The protocol:
(§1) Female Balb/C mice (6-8-week-old) were purchased from Charles River Laboratories. All experiments were performed according to the approved protocols by the Institutional Animal Care and Use Committee (IACUC) of the Faculty of Arts and Sciences (FAS), Harvard University, Cambridge.
Balb/c mice were subcutaneously injected in the back with 50 μL of saline, CoLa or alum (n=4 for all groups). […] Undigested tissue was removed by 70 μm mesh filtration. The suspension was centrifuged at 400×g for 10 min. The supernatant was removed via pipetting and 2 mL ACK lysing buffer (Thermo Fisher) was added to the pellet. After 5 min the suspensions were centrifuged again and resuspended with 2 mL FCS blocking buffer.

The next data set has as its system immune response to OVA. The protocol: as §1
Balb/c mice were subcutaneously injected in the back with 50 μL of OVA-saline, OVA-CoLa or alum (n=8 for all groups). A total of three injections were given on day 0, day 7 and day 14. On day 19, the mice were euthanized, blood and spleen were collected for further analysis.
Blood was centrifuged at 5000 rpm for 10 minutes at 4° C. to separate the serum from the cells. Anti-OVA IgG titer was measured as previously described^13.

The target of data set [3] is T1, OVA (Gallus gallus, UniProt P01012). Conditions: 10% w/v CoLa in saline, compared to alum.
T1 sequence (P01012 whole entry): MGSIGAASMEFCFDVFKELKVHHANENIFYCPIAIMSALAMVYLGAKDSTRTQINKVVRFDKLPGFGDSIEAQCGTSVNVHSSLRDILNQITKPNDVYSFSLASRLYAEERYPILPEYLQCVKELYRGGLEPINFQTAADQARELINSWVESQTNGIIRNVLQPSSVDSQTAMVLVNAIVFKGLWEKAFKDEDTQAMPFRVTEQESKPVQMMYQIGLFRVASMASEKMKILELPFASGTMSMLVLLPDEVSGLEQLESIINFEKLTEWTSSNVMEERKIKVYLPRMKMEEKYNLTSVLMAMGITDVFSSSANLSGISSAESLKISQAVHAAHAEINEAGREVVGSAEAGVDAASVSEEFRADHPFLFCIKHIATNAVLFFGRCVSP
Protocol: For the CoLa adjuvant formulation, 10% w/v CoLa was added unless specified. Adsorbed OVA was quantified using a plate reader (Spectramax i3™)
Data set [4] has as its target T1, OVA.
Protocol: OVA containing solutions (0.5 mg mL-1) and complete medium (DMEM+10% FBS) were mixed to a total volume of 500 μL and incubated at 37° C. on a tube revolver. At regular time points, the suspensions were centrifuged at 12 000×g for 15 min and the supernatant was collected for analysis. The pellet was further resuspended in 400 μL fresh release media and incubated until the next time point.
The target in data set [5] is T1, OVA. This is another data set of the same source.
Protocol: An SDS-PAGE assay was carried out to assess OVA aggregation from the OVA-CoLa or alum samples. 1 mg mL-1 OVA in 10% v/v CoLa or 2% alum were incubated for 1 h at room temperature (25° C.). OVA in saline was used as a negative control. […] Before electrophoresis, all samples were centrifuged at 5000×g for 5 min to discard any undissolved residue and the clear supernatants were adjusted to equivalent protein concentration. […] The protein bands were stained with Bio-Safe Coomassie stain (BioRad) for observation according to the manufacturer's protocol. Circular dichroism spectrophotometry (Jasco J-1500, Easton) was performed in the far-UV region (190-250 nm) to collect spectra. The three OVA (0.5 mg mL-1) containing formulations were centrifuged for 10 min at 10,000×g. The supernatant was removed via pipetting, while the soft OVA pellet at the bottom of the tube was not disturbed. The pellet was washed with 1 mL PBS and centrifuged again to remove the supernatant. The washing/centrifugation steps were repeated until no OVA pellet was formed during centrifugation. Rectangular quartz cells with a 1 mm path length (1-Q-1) were loaded with 400 μL of a sample. As a control spectrum, OVA in PBS was used. Each spectrum was the average of three scans.

Structures can show the parent of a compound that is named as a salt. Where two headings read alike, the source gives them in different places.

For `CCCCC(CC)COS(=O)(=O)O` (stereo not drawn) [2-Ethylhexyl sulfate], the LogP in data set [1] is given as 3.10.

As to `CC(C)=CC(=O)O` [3,3-dimethylacrylic acid], the log partition coefficient (LogP) in data set [1] was 1.2.

Turning to `O=S(=O)(O)c1ccc(O)cc1` [4-hydroxybenzenesulfonic acid], in data set [1] (exemplary anions), the log partition coefficient (LogP) was 0.2.

Consider `O=C(O)c1cccc(-c2ccccc2)c1` [Biphenyl-3-carboxylic acid], for which, in data set [1] (exemplary anions), the LogP is given as 3.5.

Turning to `CC(O)C(=O)O.CC(O)C(=O)[O-].C[N+](C)(C)CCO` [CoLa, Choline lactate (1:2)], in data set [2], the “infiltrating CD8 cells” value is given as “no such effect”. In addition, in data set [2] (compared to the controls), the “CD86 (activation marker) on infiltrating dendritic cells” value is “significant increase” and the “increase in infiltration of CD4 cells” value was around 25%. In addition, the “higher infiltration of dendritic cells” value in data set [2] (compared to untreated and alum-treated mice) was 20%. The “Th2 response, as assessed by anti-OVA IgG” value in the data set on immune response to OVA (compared to alum) was “non-significant Th2 response”. In the data set with immune response to OVA (injections day 0, 7, 14, analysis day 19), the Th1 response entry is listed as “strong Th1 response”. In addition, in the data set with immune response to OVA (spleen, CoLa versus alum), the “activated dendritic cells (CD80)” value is “significantly higher”. Besides, in the data set with immune response to OVA (spleen, compared to alum), the “increase in IFN-γ+CD4 cells” value is reported as around 3 fold. In addition, in the data set on immune response to OVA (spleen, compared to both the other groups), the “increase in the number of CD4 cells” value was 50%. Also, the “increase in the CD8 cells” value in the data set with immune response to OVA (spleen, compared to the controls) was found to be 5 fold. Besides, the “increase in natural killer (NK) cells” value in the data set with immune response to OVA (spleen, compared to the saline group) was around 1.8 fold. In addition, on OVA [3], the “OVA adsorption on adjuvant” value was “lower adsorption”. The “time over which adsorbed OVA was released” value on OVA [4] (10% w/v CoLa in saline, DMEM+10% FBS, 37° C.) worked out at 24 h. In addition, the “release of adsorbed OVA” value on OVA [4] (compared to alum) was “faster release”. On OVA [5], the “secondary structure of OVA (CD analysis)” value is reported as “preserved”. Moreover, the “molecular integrity of adsorbed OVA (SDS-PAGE)” value on OVA [5] (similar to alum and saline) was “maintained the molecular integrity”.

Consider `O=C(O)[C@H](O)[C@@H](O)[C@H](O)[C@H](O)CO` [Gluconic acid], for which the LogP in data set [1] (exemplary anions) is given as −3.4.

Turning to `O=C(O)CO` [Glycolic acid], in data set [1] (exemplary anions), the LogP is −1.11.

With `O=C(O)CCc1ccccc1` [Hydrocinnamic acid], the LogP in data set [1] (exemplary anions) is on record as 1.84.

As to `CC(C)C(=O)O` [Isoburtyric acid], in data set [1] (exemplary anions), the LogP was 0.94.

For the molecule `O=C(O)/C=C\C(=O)O` [Maleic acid], the LogP in data set [1] (exemplary anions) is recorded as −0.48.

`O=P(O)(O)Oc1ccccc1` [Phenylphosphoric acid]: in data set [1] (exemplary anions), the lipophilicity (LogP) is 1.05.

With `CCC(=O)O` [Propanoic acid], in data set [1] (exemplary anions), the LogP is recorded as 0.33.

As usually defined, the LogP is a log measure of how a compound divides between an organic and an aqueous phase.
